# Experiments:
# Assay type in all cases: in vivo
# corn (Zea mays) [1] = test: Test A postemergence, corn; details: Postemergence, 0 to 100 scale (0 no effect, 100 complete control)
# Outline: (§1)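 Pots: loam soil/sand blend. Pre: directed soil spray at planting. Post: plants 2–10 cm, 1–2 leaf stage. Formulation: non-phytotoxic solvent + surfactant.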
# [2] = test system: ragweed (common ragweed, Ambrosia artemisiifolia); test: Test A preemergence, ragweed; details: Preemergence
# Outline: as §1
# [3] = test system: barnyardgrass (Echinochloa crus-galli); test: Test A postemergence, barnyardgrass; details: Postemergence, 0 to 100 scale (0 no effect, 100 complete control)
# Outline: (§2)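 Compounds in non-phytotoxic solvent with surfactant. Soil: loam/sand. Preemergence via directed soil spray after seeding; postemergence on seedlings 2–10 cm, one- to two-leaf.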
# [4] = test system: Ryegrass, Italian (Italian ryegrass, Lolium multiflorum); test: Test A postemergence, Ryegrass, Italian; details: Postemergence, 0 to 100 scale (0 no effect, 100 complete control)
# Outline: as §1
# [5] = test system: barnyardgrass (Echinochloa crus-galli); test: Test A preemergence, barnyardgrass; details: Preemergence
# Outline: as §1
# [6] = test system: ragweed (common ragweed, Ambrosia artemisiifolia); test: Test A postemergence, ragweed; details: Postemergence, 0 to 100 scale (0 no effect, 100 complete control)
# Outline: as §1
# kochia (Bassia scoparia) [7] = test: Test A preemergence, kochia; details: Preemergence
# Outline: as §1
# [8] = test system: pigweed (Amaranthus retroflexus); test: Test A preemergence, pigweed
# Outline: as §2
# [9] = test system: pigweed (Amaranthus retroflexus); test: Test A postemergence, pigweed; details: Postemergence, 0 to 100 scale (0 no effect, 100 complete control)
# Outline: as §1
# [10] = test system: Foxtail, Giant (giant foxtail, Setaria faberi); test: Test A postemergence, Foxtail, Giant; details: Postemergence, 0 to 100 scale (0 no effect, 100 complete control)
# Outline: as §1
# kochia (Bassia scoparia) [11] = test: Test A postemergence, kochia; details: Postemergence, 0 to 100 scale (0 no effect, 100 complete control)
# Outline: as §1
# [12] = test system: galium (catchweed bedstraw, Galium aparine); test: Test A postemergence, galium; details: Postemergence, 0 to 100 scale (0 no effect, 100 complete control)
# Outline: as §2
# [13] = test system: Ryegrass, Italian (Italian ryegrass, Lolium multiflorum); test: Test A preemergence, Ryegrass, Italian; details: Preemergence
# Outline: as §1
# [14] = test system: blackgrass (Alopecurus myosuroides); test: Test A postemergence, blackgrass; details: Postemergence, 0 to 100 scale (0 no effect, 100 complete control)
# Outline: as §1
# [15] = test system: wheat (Triticum aestivum); test: Test A postemergence, wheat; details: Postemergence, 0 to 100 scale (0 no effect, 100 complete control)
# Outline: as §2
# [16] = test system: Foxtail, Giant (giant foxtail, Setaria faberi); test: Test A preemergence, Foxtail, Giant; details: Preemergence
# Outline: as §1
# [17] = test system: Foxtail, Giant (giant foxtail, Setaria faberi); test: Test A1 preemergence, Foxtail, Giant
# Source text: (§3) Seeds of plant species selected from, blackgrass (Alopecurus myosuroides), corn (Zea mays), Foxtail, Giant (giant foxtail, Setaria faberi), goosegrass (Eleusine indica), kochia (Bassia scoparia), Oat, Wild (wild oat, Avena fatua), Pigweed, Palmer (palmer amaranth, palmer pigweed, Amaranthus palmeri), ragweed (common ragweed, Ambrosia artemisiifolia), Ryegrass, Italian (Italian ryegrass, Lolium multiflorum), soybean (Glycine max), and wheat (Triticum aestivum) were planted into a blend of loam soil and sand and treated preemergence with a directed soil spray using test chemicals formulated in a non-phytotoxic solvent mixture which included a surfactant. At the same time, plants selected from these crop and weed species and also galium (catchweed bedstraw, Galium aparine) and horseweed (Erigeron canadensis) were planted in pots containing the same blend of loam soil and sand and treated with postemergence applications of test chemicals formulated in the same manner. Plants ranged in height from 2 to 10 cm and were in the one- to two-leaf stage for the postemergence treatment. […] A dash (-) response means no test result.
# [18] = test system: ragweed (common ragweed, Ambrosia artemisiifolia); test: Test A1 postemergence, ragweed; details: Postemergence
# Source text: as §3
# [19] = test system: ragweed (common ragweed, Ambrosia artemisiifolia); test: Test A1 preemergence, ragweed
# Source text: as §3
# rice (Oryza sativa) = test: Test B1 flooded paddy test, rice; details: 250 g ai/ha, Flood, applied to paddy water, 2-leaf stage, visually evaluated after 10 to 14 days
# Source text: (§4) A dash (-) response means no test result.
# [20] = test system: Oat, Wild (wild oat, Avena fatua); test: Test A1 preemergence, Oat, Wild
# Source text: as §3
# [21] = test system: Oat, Wild (wild oat, Avena fatua); test: Test A1 postemergence, Oat, Wild; details: Postemergence
# Source text: as §3
# [22] = test system: Ryegrass, Italian (Italian ryegrass, Lolium multiflorum); test: Test A1 preemergence, Ryegrass, Italian
# Source text: as §3
# [23] = test system: Pigweed, Palmer (palmer amaranth, palmer pigweed, Amaranthus palmeri); test: Test A1 postemergence, Pigweed, Palmer; details: Postemergence
# Source text: as §3
# [24] = test system: Ryegrass, Italian (Italian ryegrass, Lolium multiflorum); test: Test A1 postemergence, Ryegrass, Italian; details: Postemergence
# Source text: as §3
# [25] = test system: blackgrass (Alopecurus myosuroides); test: Test A1 preemergence, blackgrass
# Source text: as §3
# [26] = test system: blackgrass (Alopecurus myosuroides); test: Test A1 postemergence, blackgrass; details: Postemergence, 0 to 100 scale (0 no effect, 100 complete control)
# Source text: as §3
# [27] = test system: barnyardgrass (Echinochloa crus-galli); test: Test B1 flooded paddy test, barnyardgrass; details: 250 g ai/ha, Flood, applied to paddy water, 2-leaf stage, visually evaluated after 10 to 14 days
# Source text: as §4
# [28] = test system: ducksalad (Heteranthera limosa); test: Test B1 flooded paddy test, ducksalad; details: 250 g ai/ha, Flood, applied to paddy water, 2-leaf stage, visually evaluated after 10 to 14 days
# Source text: as §4
# corn (Zea mays) [29] = test: Test A1 preemergence, corn
# Source text: as §3
# soybean (Glycine max) [30] = test: Test A1 preemergence, soybean
# Source text: as §3
# [31] = test system: Pigweed, Palmer (palmer amaranth, palmer pigweed, Amaranthus palmeri); test: Test A1 preemergence, Pigweed, Palmer
# Source text: as §3
# [32] = test system: wheat (Triticum aestivum); test: Test A1 postemergence, wheat; details: Postemergence
# Source text: as §3
# corn (Zea mays) [33] = test: Test A1 postemergence, corn; details: Postemergence
# Source text: as §3
# [34] = test system: wheat (Triticum aestivum); test: Test A1 preemergence, wheat
# Source text: as §3
# kochia (Bassia scoparia) [35] = test: Test A1 postemergence, kochia; details: Postemergence
# Source text: as §3
# [36] = test system: goosegrass (Eleusine indica); test: Test A1 preemergence, goosegrass
# Source text: as §3
# kochia (Bassia scoparia) [37] = test: Test A1 preemergence, kochia
# Source text: as §3
# [38] = test system: goosegrass (Eleusine indica); test: Test A1 postemergence, goosegrass; details: Postemergence
# Source text: as §3
# soybean (Glycine max) [39] = test: Test A1 postemergence, soybean; details: Postemergence
# Source text: as §3
# [40] = test system: galium (catchweed bedstraw, Galium aparine); test: Test A1 postemergence, galium; details: Postemergence
# Source text: as §3
# [41] = test system: Foxtail, Giant (giant foxtail, Setaria faberi); test: Test A1 postemergence, Foxtail, Giant; details: Postemergence
# Source text: as §3
# [42] = 500 g ai/ha, visual injury approx. 10 days
# [43] = 125 g ai/ha, visual injury, 0 to 100 scale (0 no effect, 100 complete control), approx. 10 days
# [44] = 500 g ai/ha, visual injury on 0 to 100 scale (0 no effect, 100 complete control), approximately 10 days
# [45] = 31 g ai/ha, 0 to 100 scale (0 no effect, 100 complete control)
# [46] = 125 g ai/ha, 0 to 100 scale, 0 no effect, 100 complete control
# [47] = 31 g ai/ha, 0 to 100 scale (0 no effect, 100 complete control), 10 days
smiles,measurement,setting,value
Cc1cc(C)c(N(S(=O)(=O)C(F)(F)F)S(=O)(=O)C(F)(F)F)cc1N1CCC2(CCCC2)C1=O [Compound 280],"Plant response rating, Corn",corn (Zea mays) [1]; 125 g ai/ha,0
same,"Plant response rating, Corn",corn (Zea mays) [1]; [42],10
same,"Plant response rating, Ragweed",[2]; [43],30
same,Ragweed plant response rating,[2]; [44],70
same,"Plant response rating, Barnyardgrass",[3]; 125 g ai/ha,20
same,"Plant response rating, Barnyardgrass",[3]; [42],90
same,"Plant response rating, Ryegrass, Italian",[4]; 125 g ai/ha,40
same,"Plant response rating, Ryegrass, Italian",[4]; [42],70
same,"Plant response rating, Barnyardgrass",[5]; [43],90
same,Barnyardgrass plant response rating,[5]; [44],90
same,"Plant response rating, Ragweed",[6]; 125 g ai/ha,30
same,"Plant response rating, Ragweed",[6]; [42],50
same,"Plant response rating, Kochia",kochia (Bassia scoparia) [7]; [43],40
same,Kochia plant response rating,kochia (Bassia scoparia) [7]; [44],70
same,"Plant response rating, Pigweed",[8]; [43],70
same,Pigweed plant response rating,[8]; [44],100
same,"Plant response rating, Pigweed",[9]; 125 g ai/ha,60
same,"Plant response rating, Pigweed",[9]; [42],90
same,"Plant response rating, Foxtail, Giant",[10]; 125 g ai/ha,0
same,"Plant response rating, Foxtail, Giant",[10]; [42],20
same,"Plant response rating, Kochia",kochia (Bassia scoparia) [11]; 125 g ai/ha,20
same,"Plant response rating, Kochia",kochia (Bassia scoparia) [11]; [42],50
same,"Plant response rating, Galium",[12]; 125 g ai/ha,80
same,"Plant response rating, Galium",[12]; [42],90
same,"Plant response rating, Ryegrass, Italian",[13]; [43],100
same,"Ryegrass, Italian plant response rating",[13]; [44],100
same,"Plant response rating, Blackgrass",[14]; 125 g ai/ha,0
same,"Plant response rating, Blackgrass",[14]; [42],0
same,"Plant response rating, Wheat",[15]; 125 g ai/ha,40
same,"Plant response rating, Wheat",[15]; [42],60
same,"Plant response rating, Foxtail, Giant",[16]; [43],100
same,"Foxtail, Giant plant response rating",[16]; [44],100
Cc1c(NS(=O)(=O)C(F)(F)F)cc(C(=O)N2CC(C)OC(C)C2)c(C)c1C (stereo not drawn) [Compound 328],"Plant response rating, Foxtail, Giant",[17]; [45],20
same,"Plant response rating, Foxtail, Giant",[17]; [46],100
same,"Plant response rating, Ragweed",[18]; [47],40
same,"Plant response rating, Ragweed","[18]; 125 g ai/ha, 0 to 100 scale",70
same,"Plant response rating, Ragweed",[19]; [45],10
same,"Plant response rating, Ragweed",[19]; [46],80
same,"Plant response rating, Rice (0 to 100 scale, 0 is no effect, 100 is complete control)",rice (Oryza sativa),0
same,"Plant response rating, Oat, Wild",[20]; [45],0
same,"Plant response rating, Oat, Wild",[20]; [46],30
same,"Plant response rating, Oat, Wild",[21]; [47],0
same,"Plant response rating, Oat, Wild","[21]; 125 g ai/ha, 0 to 100 scale",0
same,"Plant response rating, Ryegrass, Italian",[22]; [45],30
same,"Plant response rating, Ryegrass, Italian",[22]; [46],100
same,"Plant response rating, Pigweed, Palmer",[23]; [47],30
same,"Plant response rating, Pigweed, Palmer","[23]; 125 g ai/ha, 0 to 100 scale",40
same,"Plant response rating, Ryegrass, Italian",[24]; [47],30
same,"Plant response rating, Ryegrass, Italian","[24]; 125 g ai/ha, 0 to 100 scale",60
same,"Plant response rating, Blackgrass",[25]; [45],20
same,"Plant response rating, Blackgrass",[25]; [46],30
same,"Plant response rating, Blackgrass","[26]; 31 g ai/ha, 10 days",0
same,"Plant response rating, Blackgrass",[26]; 125 g ai/ha,0
same,"Plant response rating, Barnyardgrass (0 to 100 scale, 0 is no effect, 100 is complete control)",[27],40
same,"Plant response rating, Ducksalad (0 to 100 scale, 0 is no effect, 100 is complete control)",[28],90
same,"Plant response rating, Corn",corn (Zea mays) [29]; [45],10
same,"Plant response rating, Corn",corn (Zea mays) [29]; [46],60
same,"Plant response rating, Soybean",soybean (Glycine max) [30]; [45],50
same,"Plant response rating, Soybean",soybean (Glycine max) [30]; [46],90
same,"Plant response rating, Pigweed, Palmer",[31]; [45],100
same,"Plant response rating, Pigweed, Palmer",[31]; [46],100
same,"Plant response rating, Wheat",[32]; [47],0
same,"Plant response rating, Wheat","[32]; 125 g ai/ha, 0 to 100 scale",50
same,"Plant response rating, Corn",corn (Zea mays) [33]; [47],0
same,"Plant response rating, Corn","corn (Zea mays) [33]; 125 g ai/ha, 0 to 100 scale",50
same,"Plant response rating, Wheat",[34]; [45],0
same,"Plant response rating, Wheat",[34]; [46],30
same,"Plant response rating, Kochia",kochia (Bassia scoparia) [35]; [47],10
same,"Plant response rating, Kochia","kochia (Bassia scoparia) [35]; 125 g ai/ha, 0 to 100 scale",60
same,"Plant response rating, Goosegrass",[36]; [45],40
same,"Plant response rating, Goosegrass",[36]; [46],80
same,"Plant response rating, Kochia",kochia (Bassia scoparia) [37]; [45],20
same,"Plant response rating, Kochia",kochia (Bassia scoparia) [37]; [46],90
same,"Plant response rating, Goosegrass",[38]; [47],20
same,"Plant response rating, Goosegrass","[38]; 125 g ai/ha, 0 to 100 scale",80
same,"Plant response rating, Soybean",soybean (Glycine max) [39]; [47],60
same,"Plant response rating, Soybean","soybean (Glycine max) [39]; 125 g ai/ha, 0 to 100 scale",60
same,"Plant response rating, Galium",[40]; [47],80
same,"Plant response rating, Galium","[40]; 125 g ai/ha, 0 to 100 scale",100
same,"Plant response rating, Foxtail, Giant",[41]; [47],0
same,"Plant response rating, Foxtail, Giant","[41]; 125 g ai/ha, 0 to 100 scale",70

# From patent publication US20230278972A1, “SUBSTITUTED HALOALKYL SULFONANILIDE HERBICIDES” (FMC Corporation, priority 2020, published 2023)
